{
  "source": "paper doi:10.1101/2025.03.10.642353v1",
  "about": "“Deciphering the role of histo-blood group antigens in bovine rotavirus C infection” (biorxiv, 2025)",
  "biological_target": "T1, bovine P[3] RVC VP8* (Bovine rotavirus C, UniProt L0N4C6)",
  "T1 construct": "gene VP4; VP8* galectin-like domain of polyprotein-like spike VP4 (trypsin-cleaved), residues 64-228 (E64-R228), synthetic codon-optimised gene, pGEX-2T N-terminal GST, E. coli BL21(DE3)",
  "test": "STD NMR (binding epitope mapping)",
  "settings": "PBS in D2O, pH 7.4, 278 K; 50 uM protein, 2 mM ligand; both anomers of reducing GlcNAc",
  "description": "STD NMR (binding epitope mapping) on bovine P[3]",
  "data": [
    {"smiles": "CC(=O)N[C@H]1C(O)O[C@H](CO)[C@@H](O[C@@H]2O[C@H](CO)[C@H](O)[C@H](O)[C@H]2O[C@@H]2O[C@@H](C)[C@@H](O)[C@@H](O)[C@@H]2O)[C@@H]1O", "note": "(stereo partly drawn) [H2, Fuc-α1,2-Gal-β1,4-GlcNAc]", "values": [
      {"measurement": "STD NMR (binding epitope mapping)", "value": "All performed STD NMR experiments showed clear signals confirming the binding of H2 antigen"}
    ]}
  ]
}
